Experimental data from patent publication US20170158636A1, “FUNCTIONALISED AND SUBSTITUTED CARBAZOLES AS ANTI-CANCER AGENTS” (Novogen Ltd., priority 2014, published 2017).

How the values were obtained:
Format in all cases: cell-based
IL-21 = experiment: Cytokine release from PMA/ionomycin-stimulated PBMCs (HTRF); settings: PBMC, human PBMCs, PMA and ionomycin
Protocol: (§1) The ability of compounds 1004, 1007 and 1018 to inhibit the release of cytokines TNF-α, IFN-γ, IL-6, IL-21, IL-17A and IL-23 was evaluated in vitro (Tables 2 and 3). Briefly, human peripheral blood mononuclear cells (PBMCs) were isolated from human peripheral blood by Histopaque density gradient centrifugation. The freshly isolated PBMCs were seeded at 50,000 cells/well in a 96-well half area plate. PBMCs were dosed with the test compounds (at 10 μM, 1 μM and 0.1 μM) and then incubated at 37° C. and 5% CO2 for 2 hours. To stimulate release of the cytokines IFN-γ, IL-21, IL-17A and IL-23, the PBMCs were treated with 50 ng/mL of phorbol 12-myristate 13-acetate (PMA) and 1 μg/mL of ionomycin and to stimulate the release of TNF-α and IL-6, PBMCs were treated with 100 ng/mL of lipopolysaccharide (LPS) from gram-negative bacteria. The PBMCs were then incubated at 37° C. and 5% CO2 for a further 6 hours and the cell supernatant was collected and a Homogenous Time Resolved Fluorescence (HTRF) assay was carried out following the manufacturer's instructions. Cytokine release from the PBMCs was captured using a Perkin Elmer ENVISION 2104 microplate reader set at 615 nm and 665 nm respectively.

IL-23 = experiment: as above; settings: PBMC, human PBMCs, PMA and ionomycin
Protocol: as §1

IFN-γ = experiment: as above; settings: PBMC, human PBMCs, PMA and ionomycin
Protocol: as §1

IL-17A = experiment: as above; settings: PBMC, human PBMCs, PMA and ionomycin
Protocol: as §1

TNF-α = experiment: Cytokine release from LPS-stimulated PBMCs (HTRF); settings: PBMC, human PBMCs
Protocol: as §1

IL-6 = experiment: Cytokine release from LPS-stimulated PBMCs (HTRF); settings: PBMC, human PBMCs
Protocol: as §1

[1] = system: actin cytoskeleton in SK-N-SH neuroblastoma cells; experiment: Microfilament disruption assay (phalloidin staining, linear feature quantitation); settings: 0-40 μM, 24 hours post treatment
Protocol: FIG. 1: Imaging and quantitation of actin filaments in SK-N-SH neuroblastoma cells treated with compound (A) 1007, (B) 1013 and (C) 1016. Cells were stained with 488-Atto-Phallodin and DAPI to visualize the actin filament bundles and the nucleus, respectively. Shown in the top panel is a representative gray scale immunofluorescent image from control (vehicle alone), 5 μM and 10 μM treated cells. […] The coloured lines indicate the detected actin filaments. Also shown is the quantitation of cell number, filament number/cell and filament number/cell area (μM^2). Statistical analysis was performed using a one way ANNOVA-multiple comparison where each drug treated group was compared to the control. ****p<0.0001, […].
The ability of compounds 1007, 1013 and 1016 to disrupt the actin cytoskeleton was assessed in vitro using the microfilament disruption assay (FIG. 1).
Briefly, SK-N-SH neuroblastoma cells were seeded at 1800 cells/well in a 384 Perkin Elmer High Content Imaging “Cell Carrier” plate and left to plate down 24 hours prior to treatment. Cells were then treated with 0-40 μM of the test compounds (1:2 serial dilution in a 10 point dose response). 24 hours post treatment, cells were fixed with 4% w/v paraformaldehyde (PBS), permeabilized with Triton-X-100 and stained with 488-Atto-Phallodin and DAPI to visualize the actin filament bundles and the nucleus respectively. Single plane images were obtained on the Perkin Elmer Opera confocal microscope using a 20× objective. Twelve fields of view per condition (representing approximately 300-800 cells) were imaged. Images were then exported and changes in the organization and numbers of actin filaments within the cell were quantitated using a linear feature detection algorithm developed by CSIRO (Vindin et al. 2014). This algorithm detects the “ridge lines” or “peaks” in local pixel intensity in the cell image. It is these “ridge lines” that correspond to actin filament bundles and allow us to quantitate the number of filaments per cell.

[2] = system: MDA-MB-231 breast cancer cells; experiment: Anti-proliferative activity, cell-titre luminescent viability assay; settings: Homo sapiens, 72 hours exposure
How it was run: (§2)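 Seeded cell lines attached 24 h (37° C, 5% CO2), then received compound for 72 h before a 30 min luminescent viability read versus untreated control. Four-point series (0.03–30 μM) gave IC50 by linear regression of semi-log percent-of-control plots; six-point series (0.1–30 μM) gave vehicle-normalized EC50 from variable-slope sigmoidal fits.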

SK-Mel-28 melanoma cells = experiment: as above; settings: Homo sapiens, 72 hours exposure
How it was run: as §2

[3] = system: PC3 prostate cancer cells; experiment: as above; settings: 72 hours exposure
How it was run: as §2

[4] = system: SK-N-SH neuroblastoma cells; experiment: as above; settings: Homo sapiens, 72 hours exposure
How it was run: as §2

[5] = system: DU145 prostate cancer cells; experiment: as above; settings: Homo sapiens, DU-145, 72 hours exposure
How it was run: as §2

[6] = system: A549 lung (NSLC) cancer cells; experiment: as above; settings: Homo sapiens, 72 hours exposure
How it was run: as §2

[7] = system: CaCo2 colorectal cancer cells; experiment: as above; settings: Homo sapiens, Caco-2, 72 hours exposure
How it was run: as §2

## CCN(CC)CCCn1c2ccccc2c2cc(C(=O)N3CCN(CCc4ccc(F)cc4)CC3)ccc21 [Compound 1007, (9-(3-(diethylamino)propyl)-9H-carbazol-3-yl)(4-(4-fluorophenethyl)piperazin-1-yl)methanone]
IL-21; 0.1 μM
  inhibition at 0.1 µM: -7%
IL-21; 1 μM
  inhibition at 1 µM: -9%
IL-21; 10 μM
  inhibition at 10 µM: -4%
IL-23; 0.1 μM
  inhibition at 0.1 µM: -15%
IL-23; 1 μM
  inhibition at 1 µM: -11%
IL-23; 10 μM
  inhibition at 10 µM: -3%
IFN-γ; 0.1 μM
  inhibition at 0.1 µM: 8%
IFN-γ; 1 μM
  inhibition at 1 µM: 53%
IFN-γ; 10 μM
  inhibition at 10 µM: 90%
IL-17A; 0.1 μM
  inhibition at 0.1 µM: -4%
IL-17A; 1 μM
  inhibition at 1 µM: 22%
IL-17A; 10 μM
  inhibition at 10 µM: 59%
TNF-α; 0.1 μM
  inhibition at 0.1 µM: 43%
TNF-α; 1 μM
  inhibition at 1 µM: 60%
TNF-α; 10 μM
  inhibition at 10 µM: 82%
IL-6; 0.1 μM
  inhibition at 0.1 µM: 38%
IL-6; 1 μM
  inhibition at 1 µM: 59%
IL-6; 10 μM
  inhibition at 10 µM: 89%
[1]
  disruption of the actin cytoskeleton: disrupt the actin cytoskeleton in a dose-dependent manner
[2]
  IC50: 2400 nM
SK-Mel-28 melanoma cells
  IC50: 1200 nM
[3]
  IC50: 3.2 µM
[4]
  IC50: 1600 nM
[5]
  IC50: 3000 nM
[6]
  IC50: 1900 nM
[7]
  IC50: 2800 nM
